Assay results reported in article PMC9599461, “Stereoselectivity in the Membrane Transport of Phenylethylamine Derivatives by Human Monoamine Transporters and Organic Cation Transporters 1, 2, and 3” (Biomolecules, 2022).

Assays:
[1] = target: T1, SERT (Homo sapiens, UniProt P31645); test: in vitro;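 also: uptake into HEK293 cells stably expressing human SERT over 2 min, enantiomers measured in cell lysate by chiral HPLC-MS/MS, normalized to total protein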
Procedure: (§1) All transport experiments were carried out in HEK293 cells stably overexpressing human MATs or OCTs. […] All cells were regularly cultivated in DMEM supplemented with 10% (v/v) FCS, penicillin (100 U/mL) and streptomycin (100 μg/mL)and kept in culture for no longer than 30 passages.
(§2) For the uptake experiments, 300,000 cells were plated in poly-D-lysine precoated 24-well plates 48 h ahead of the transport experiment. On the day of experiment, cells were initially washed once with 37 °C pre-warmed HBSS+ (Hanks buffered salt solution supplemented with 10 mM HEPES) and subsequently incubated with the substrates dissolved in pre-warmed HBSS+ for exactly two minutes. Incubation was stopped by adding ice-cold HBSS+ followed by two washing steps. After this, cells were lysed with 80% acetonitrile containing 10 ng/mL milnacipran as internal standard for high-performance liquid chromatography coupled to tandem mass spectrometry (HPLC-MS/MS) analysis. For every experiment, two additional wells per cell line were lysed using RIPA buffer for protein quantification. Total protein was quantified using the bicinchoninic acid assay [42]. This was later used for normalization of the uptake data.
(§3) Intracellularly accumulated test substances were quantified by HPLC-MS/MS analysis using a Shimadzu Nexera HPLC system with a SIL-30AC autosampler, a CTO-20AC column oven, a LC-30AD pump, and a CBM-20A controller (Shimadzu, Kyoto, Japan). […] CBH HPLC column (100 × 3 mm inner dimension with 5 μM particle size; Sigma-Aldrich, Darmstadt, Germany) with a corresponding 10 × 3 mm guard column. Reversed phased chromatography was carried out using an ammonium acetate (NH4Ac) buffered aqueous mobile phase with isopropyl alcohol (IPA) as organic solvent. […] The order of elution of the enantiomers was obtained from available reference literature [43] or by applying enantiopure reference compounds to the chiral HPLC.
(§4) Detection was performed with an API 4000 tandem mass spectrometer (AB SCIEX, Darmstadt, Germany) operating in multiple-reaction-monitoring mode. Quantification was performed using the Analyst 1.6.2 software (AB SCIEX, Darmstadt, Germany) and quantified by comparison to standard curves with known concentrations.
(§5) All uptake data were normalized to protein content to account for variation in the number of seeded sells. Transporter-mediated net uptake was calculated by subtracting uptake into empty vector-transfected control cells from uptake into transporter-transfected cells. […] Vmax refers to the maximum transport velocity and Km is defined as the substance concentration required to reach half of vmax. The intrinsic clearance Clint was calculated as the quotient of vmax over Km.

[2] = tested on: OCT2 wild-type versus A270S variant; test: in vitro; details: human, Transporter selectivity, OCT2 wild-type versus A270S, 100 μM racemic substance, two minutes
Procedure: as §1, §2
(§6) Intracellularly accumulated test substances were quantified by HPLC-MS/MS analysis using a Shimadzu Nexera HPLC system with a SIL-30AC autosampler, a CTO-20AC column oven, a LC-30AD pump, and a CBM-20A controller (Shimadzu, Kyoto, Japan). Stereoselective chromatography was carried out on a [sequence] CBH HPLC column (100 × 3 mm inner dimension with 5 μM particle size; Sigma-Aldrich, Darmstadt, Germany) with a corresponding 10 × 3 mm guard column. Reversed phased chromatography was carried out using an ammonium acetate (NH4Ac) buffered aqueous mobile phase with isopropyl alcohol (IPA) as organic solvent. […] The order of elution of the enantiomers was obtained from available reference literature [43] or by applying enantiopure reference compounds to the chiral HPLC. […] However, in every other case where the order of elution was available, the (R)-enantiomer eluted first. Given the structural similarity of the investigated substances and the fact that separation was performed on the same column with almost identical mobile phases, we assume that this order of elution for our compound set is always the (R)- before the (S)-enantiomer.
as §4
(§7) All uptake data were normalized to protein content to account for variation in the number of seeded sells. Transporter-mediated net uptake was calculated by subtracting uptake into empty vector-transfected control cells from uptake into transporter-transfected cells. Kinetic parameters were then determined after non-linear regression following the Michaelis–Menten equation (v = vmax × [S]/(Km + [S])) using GraphPad Prism (Version 5.01 for Windows, GraphPad Software, La Jolla, CA, USA). Vmax refers to the maximum transport velocity and Km is defined as the substance concentration required to reach half of vmax. The intrinsic clearance Clint was calculated as the quotient of vmax over Km.
(§8) HEK293 cells stably overexpressing wild-type or mutant OCT2 were incubated with 100 μM racemic substance for two minutes.

[3] = target: NET (Homo sapiens, UniProt P23975); test: Stereoselective uptake into NET-overexpressing HEK293 cells; details: for Clint ± SEM / Stereoselectivity Vmax / Saturable net uptake: NET; for Clint ± SEM: quotient of vmax over Km; for Stereoselectivity Vmax: ratio between enantiomers; for selectivity ratio at 2 min: human; for Saturable net uptake: result in words;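 as to all read-outs here: intracellular enantiomers quantified in cell lysates by chiral HPLC-MS/MS after a 2 min substrate incubation, with uptake normalized to total cellular protein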
Chain of NET (P23975 whole entry): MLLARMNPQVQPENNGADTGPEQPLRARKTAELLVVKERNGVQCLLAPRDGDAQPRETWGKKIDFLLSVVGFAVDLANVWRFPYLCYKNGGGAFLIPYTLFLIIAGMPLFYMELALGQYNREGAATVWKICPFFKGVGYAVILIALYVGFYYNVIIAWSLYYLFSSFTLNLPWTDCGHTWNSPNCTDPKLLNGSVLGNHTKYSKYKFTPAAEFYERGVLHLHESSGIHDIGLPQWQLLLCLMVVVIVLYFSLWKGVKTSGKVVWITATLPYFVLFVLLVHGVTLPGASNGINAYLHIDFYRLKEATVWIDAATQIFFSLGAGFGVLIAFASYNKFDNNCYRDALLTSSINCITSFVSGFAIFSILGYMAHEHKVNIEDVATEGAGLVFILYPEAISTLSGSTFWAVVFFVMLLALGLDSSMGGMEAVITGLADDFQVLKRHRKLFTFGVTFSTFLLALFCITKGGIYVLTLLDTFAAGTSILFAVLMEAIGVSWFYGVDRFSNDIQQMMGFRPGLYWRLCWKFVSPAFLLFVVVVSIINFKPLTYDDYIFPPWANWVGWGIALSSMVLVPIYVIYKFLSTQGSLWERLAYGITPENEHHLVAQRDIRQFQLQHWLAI
Procedure: as §1, §2
Intracellularly accumulated test substances were quantified by HPLC-MS/MS analysis using a Shimadzu Nexera HPLC system with a SIL-30AC autosampler, a CTO-20AC column oven, a LC-30AD pump, and a CBM-20A controller (Shimadzu, Kyoto, Japan). Stereoselective chromatography was carried out on a [sequence] CBH HPLC column (100 × 3 mm inner dimension with 5 μM particle size; Sigma-Aldrich, Darmstadt, Germany) with a corresponding 10 × 3 mm guard column. Reversed phased chromatography was carried out using an ammonium acetate (NH4Ac) buffered aqueous mobile phase with isopropyl alcohol (IPA) as organic solvent. […] The order of elution of the enantiomers was obtained from available reference literature [43] or by applying enantiopure reference compounds to the chiral HPLC. […] Given the structural similarity of the investigated substances and the fact that separation was performed on the same column with almost identical mobile phases, we assume that this order of elution for our compound set is always the (R)- before the (S)-enantiomer.
as §4, §7

[4] = target: DAT (Homo sapiens, UniProt Q01959); test: Stereoselective uptake into DAT-overexpressing HEK293 cells; details: for Clint ± SEM / Stereoselectivity Vmax / Stereoselectivity Km / Saturable net uptake: DAT; for Clint ± SEM: quotient of vmax over Km; for Stereoselectivity Vmax / Stereoselectivity Km: ratio between enantiomers; for selectivity ratio at 2 min: human; for Saturable net uptake: result in words;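 as to all read-outs here: intracellular accumulation measured by chiral HPLC-MS/MS in stably transfected HEK293 cells, normalized to total protein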
Chain of DAT (Q01959 whole entry): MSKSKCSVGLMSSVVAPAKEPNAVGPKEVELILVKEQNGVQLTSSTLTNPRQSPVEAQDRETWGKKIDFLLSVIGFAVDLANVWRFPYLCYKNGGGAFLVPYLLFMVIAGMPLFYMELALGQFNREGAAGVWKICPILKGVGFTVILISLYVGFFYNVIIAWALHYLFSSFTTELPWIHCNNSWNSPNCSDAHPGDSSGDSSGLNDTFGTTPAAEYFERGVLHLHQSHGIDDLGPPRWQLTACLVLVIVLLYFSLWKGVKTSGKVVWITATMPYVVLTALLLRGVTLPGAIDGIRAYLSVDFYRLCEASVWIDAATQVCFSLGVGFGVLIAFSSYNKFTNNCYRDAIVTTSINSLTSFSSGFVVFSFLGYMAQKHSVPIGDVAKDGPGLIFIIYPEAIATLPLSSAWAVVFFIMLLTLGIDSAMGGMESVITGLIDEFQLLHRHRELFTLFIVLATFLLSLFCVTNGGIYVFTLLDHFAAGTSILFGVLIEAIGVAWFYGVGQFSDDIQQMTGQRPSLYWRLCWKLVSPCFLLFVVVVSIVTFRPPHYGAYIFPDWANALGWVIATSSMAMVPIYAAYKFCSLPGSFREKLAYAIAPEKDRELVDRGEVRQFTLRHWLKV

[5] = target: T1, SERT; test: Stereoselective uptake into SERT-overexpressing HEK293 cells; details: for Clint ± SEM / Saturable net uptake: SERT; for Clint ± SEM: quotient of vmax over Km; for Saturable net uptake: result in words;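 as to all read-outs here: uptake into HEK293 cells stably expressing human SERT over 2 min, enantiomers measured in cell lysate by chiral HPLC-MS/MS, normalized to total protein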
Procedure: as §1, §2, §3, §4, §5

[6] = target: T2, OCT1 (Homo sapiens, UniProt O15245); test: Stereoselective uptake into OCT1-overexpressing HEK293 cells; details: for Clint ± SEM: quotient of vmax over Km; for selectivity ratio at 2 min: human; for Saturable net uptake: result in words;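 as to all read-outs here: enantiomers quantified inside cells by chiral HPLC-MS/MS, uptake normalized to total protein from bicinchoninic acid assay, substrates applied in HBSS+ buffer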
T2 sequence (O15245 1-554): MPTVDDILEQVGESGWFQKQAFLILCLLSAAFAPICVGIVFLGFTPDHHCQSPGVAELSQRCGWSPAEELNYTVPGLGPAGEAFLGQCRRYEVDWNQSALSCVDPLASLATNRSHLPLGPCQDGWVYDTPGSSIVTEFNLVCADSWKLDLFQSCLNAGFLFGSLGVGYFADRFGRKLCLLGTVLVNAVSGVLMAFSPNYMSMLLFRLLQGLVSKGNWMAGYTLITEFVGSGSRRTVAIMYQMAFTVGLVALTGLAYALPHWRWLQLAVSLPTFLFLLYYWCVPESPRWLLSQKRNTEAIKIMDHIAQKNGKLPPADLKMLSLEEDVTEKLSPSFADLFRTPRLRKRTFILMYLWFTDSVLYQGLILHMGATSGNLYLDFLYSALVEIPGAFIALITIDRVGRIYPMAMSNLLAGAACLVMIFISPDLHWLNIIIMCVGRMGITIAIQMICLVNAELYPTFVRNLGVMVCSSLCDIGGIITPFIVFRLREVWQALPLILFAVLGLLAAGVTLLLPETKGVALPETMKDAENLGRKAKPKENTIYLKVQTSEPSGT

[7] = target: T3, OCT3 (Homo sapiens, UniProt O75751); test: Stereoselective uptake into OCT3-overexpressing HEK293 cells; details: for Clint ± SEM / Stereoselectivity Vmax / Stereoselectivity Km / Saturable net uptake: OCT3; for Clint ± SEM: quotient of vmax over Km; for Stereoselectivity Vmax / Stereoselectivity Km: ratio between enantiomers; for Stereoselectivity Vmax: given as for (R) or for 1; for Stereoselectivity Km: given as for (R) or for 1 (first-eluting); for selectivity ratio at 2 min: human; for Saturable net uptake: result in words;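 as to all read-outs here: intracellular accumulation in HEK293 cells measured by chiral HPLC-MS/MS after a 2 min substrate exposure at 37 °C, uptake normalized to total protein (bicinchoninic acid assay)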
T3 sequence (O75751 1-556): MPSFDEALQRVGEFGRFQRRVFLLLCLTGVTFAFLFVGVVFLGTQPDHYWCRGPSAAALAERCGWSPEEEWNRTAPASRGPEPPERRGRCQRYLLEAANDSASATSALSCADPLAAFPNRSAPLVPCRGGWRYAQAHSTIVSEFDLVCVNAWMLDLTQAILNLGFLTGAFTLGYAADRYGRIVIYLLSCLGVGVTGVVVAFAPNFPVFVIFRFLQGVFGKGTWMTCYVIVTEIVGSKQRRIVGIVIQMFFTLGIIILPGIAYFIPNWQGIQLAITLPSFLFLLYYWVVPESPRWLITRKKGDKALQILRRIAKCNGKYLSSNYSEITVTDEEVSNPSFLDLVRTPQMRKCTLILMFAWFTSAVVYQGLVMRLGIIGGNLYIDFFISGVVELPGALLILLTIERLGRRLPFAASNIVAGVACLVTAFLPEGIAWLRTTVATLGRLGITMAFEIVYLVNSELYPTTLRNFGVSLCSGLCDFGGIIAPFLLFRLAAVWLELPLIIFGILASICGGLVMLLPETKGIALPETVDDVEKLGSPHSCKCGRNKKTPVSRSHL

[8] = target: T4, OCT2 (Homo sapiens, UniProt O15244); test: Stereoselective uptake into OCT2 (wild-type)-overexpressing HEK293 cells; details: OCT2; for Clint ± SEM: quotient of vmax over Km; for selectivity ratio at 2 min: human, ratio between enantiomers
T4 sequence (O15244 1-555 S270A): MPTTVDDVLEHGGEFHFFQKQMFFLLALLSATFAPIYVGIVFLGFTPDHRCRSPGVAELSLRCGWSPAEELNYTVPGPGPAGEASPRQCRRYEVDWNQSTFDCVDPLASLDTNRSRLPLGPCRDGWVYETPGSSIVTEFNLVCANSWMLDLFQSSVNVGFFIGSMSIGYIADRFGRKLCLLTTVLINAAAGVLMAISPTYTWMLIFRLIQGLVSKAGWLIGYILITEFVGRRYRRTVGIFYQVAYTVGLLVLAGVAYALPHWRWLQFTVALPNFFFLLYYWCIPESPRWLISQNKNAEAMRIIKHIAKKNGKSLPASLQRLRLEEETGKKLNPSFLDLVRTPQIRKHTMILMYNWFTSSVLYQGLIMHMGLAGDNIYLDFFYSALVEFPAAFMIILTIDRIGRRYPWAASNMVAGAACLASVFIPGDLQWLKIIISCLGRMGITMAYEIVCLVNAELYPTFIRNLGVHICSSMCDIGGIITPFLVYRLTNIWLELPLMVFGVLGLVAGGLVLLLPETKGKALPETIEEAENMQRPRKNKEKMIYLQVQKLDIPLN

[9] = tested on: OCT2 A270S variant; test: in vitro; details: human, Stereoselectivity OCT2_A270S, 100 μM racemic substance, two minutes, uptake ratio of enantiomers
Procedure: as §1, §2, §6, §4, §7, §8

[10] = target: T5, OCT2 (wild-type) (Homo sapiens, UniProt O15244); test: Stereoselective uptake into OCT2 (wild-type)-overexpressing HEK293 cells; details: human, Stereoselectivity OCT2_WT, 100 μM racemic substance, two minutes; uptake ratio of enantiomers, given as for (R)
T5 sequence (O15244 1-555 S270A): T4 sequence (O15244 1-555 S270A)

[11] = Stereoselectivity Vmax, OCT1, ratio between enantiomers, given as for (R) or for 1
[12] = Stereoselectivity ClInt, given as for (R) or for 1
[13] = Stereoselectivity Km, given as for (R) or for 1 (first-eluting)
[14] = Stereoselectivity Vmax, given as for (R) or for 1

T1 sequence (P31645 whole entry): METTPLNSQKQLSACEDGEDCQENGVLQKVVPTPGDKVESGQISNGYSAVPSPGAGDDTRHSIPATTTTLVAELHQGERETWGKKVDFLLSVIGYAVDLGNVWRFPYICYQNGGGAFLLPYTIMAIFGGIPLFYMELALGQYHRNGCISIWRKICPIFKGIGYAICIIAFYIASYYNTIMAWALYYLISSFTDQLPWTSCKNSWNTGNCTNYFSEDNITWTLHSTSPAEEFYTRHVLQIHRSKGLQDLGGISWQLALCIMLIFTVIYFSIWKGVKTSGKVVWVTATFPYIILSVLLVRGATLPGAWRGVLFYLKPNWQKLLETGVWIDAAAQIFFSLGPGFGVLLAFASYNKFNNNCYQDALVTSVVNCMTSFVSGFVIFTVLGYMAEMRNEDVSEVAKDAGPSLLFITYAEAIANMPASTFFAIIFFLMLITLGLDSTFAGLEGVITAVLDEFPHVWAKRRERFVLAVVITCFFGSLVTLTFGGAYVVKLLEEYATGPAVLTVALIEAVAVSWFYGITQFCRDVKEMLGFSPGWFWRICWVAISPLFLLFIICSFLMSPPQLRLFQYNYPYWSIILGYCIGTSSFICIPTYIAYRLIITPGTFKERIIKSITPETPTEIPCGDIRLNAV

## NCC(O)c1cccc(O)c1 (single isomer, unassigned) [Norphenylephrine-1, Norphenylephrine]
[1]
  selectivity ratio: 1.53
[2]; given as for WT
  selectivity ratio at 2 min, 100 μM: 1.18
[3]
  Clint ± SEM: 189 mL × g Protein^−1 × min^−1
  selectivity ratio at 2 min: 1.21
[3]; given as for (S) or for 2
  Stereoselectivity Vmax: 1.25 fold
[4]
  Clint ± SEM: 128 mL × g Protein^−1 × min^−1
  selectivity ratio at 2 min: 1.29
[4]; given as for (S) or for 2
  Stereoselectivity Vmax: 1.55 fold
[4]; given as for (S) or for 2 (second-eluting)
  Stereoselectivity Km: 1.20 fold
[5]
  Stereoselectivity Km: 1.20 fold
  Stereoselectivity Vmax: 1.27 fold
  Clint ± SEM: 1.20 mL × g Protein^−1 × min^−1
[6]; OCT1
  Clint ± SEM: 4.02 mL × g Protein^−1 × min^−1
[6]; Stereoselectivity ClInt
  selectivity ratio at 2 min: 1.05
[6]; Stereoselectivity Km, OCT1, ratio between enantiomers, given as for (R) or for 1 (first-eluting)
  selectivity ratio at 2 min: 1.03
[6]; [11]
  selectivity ratio at 2 min: 1.08
[7]
  Clint ± SEM: 11.0 mL × g Protein^−1 × min^−1
  Stereoselectivity Vmax: 3.88 fold
  Stereoselectivity Km: 1.17 fold
  selectivity ratio at 2 min: 3.32
[8]
  Clint ± SEM: 36.4 mL × g Protein^−1 × min^−1
[8]; [12]
  selectivity ratio at 2 min: 1.4
[8]; [13]
  selectivity ratio at 2 min: 1.57
[8]; [14]
  selectivity ratio at 2 min: 2.19

## CNC[C@H](O)c1cccc(O)c1 [(R)-Phenylephrine]
[1]
  selectivity ratio: 2.82
[2]; given as for WT
  selectivity ratio at 2 min, 100 μM: 1.27
[3]; HEK293 cells overexpressing human NET, racemic substrate, two minutes, net uptake
  Vmax ± SEM: 392 pmol × mg Protein^−1 × min^−1
[3]
  Clint ± SEM: 75.5 mL × g Protein^−1 × min^−1
  selectivity ratio at 2 min: 1.43
[3]; given as for (R) or for 1
  Stereoselectivity Vmax: 1.79 fold
[3]; read-out: Km ± SEM, HEK293 cells overexpressing human NET, racemic substrate, two minutes, net uptake minus empty vector control
  Km: 5.12 µM
[4]
  Clint ± SEM: 17.2 mL × g Protein^−1 × min^−1
  selectivity ratio at 2 min: 1.48
[4]; given as for (R) or for 1
  Stereoselectivity Vmax: 1.56 fold
[4]; given as for (R) or for 1 (first-eluting)
  Stereoselectivity Km: 1.06 fold
[4]; HEK293 cells overexpressing human DAT, racemic substrate, two minutes, net uptake
  Vmax ± SEM: 613 pmol × mg Protein^−1 × min^−1
[4]; read-out: Km ± SEM, HEK293 cells overexpressing human DAT, racemic substrate, two minutes, net uptake minus empty vector control
  Km: 35.6 µM
[5]
  Stereoselectivity Km: 1.89 fold
  Stereoselectivity Vmax: 1.49 fold
  Vmax ± SEM: 356
  Clint ± SEM: 17.2 mL × g Protein^−1 × min^−1
[5]; read-out: Km ± SEM, HEK293 cells overexpressing human SERT, racemic substrate, two minutes, net uptake minus empty vector control
  Km: 328 µM
[6]; OCT1
  Clint ± SEM: 9.79 mL × g Protein^−1 × min^−1
[6]; Stereoselectivity ClInt
  selectivity ratio at 2 min: 1.11
[6]; Stereoselectivity Km, OCT1, ratio between enantiomers, given as for (S) or for 2 (second-eluting)
  selectivity ratio at 2 min: 1.02
[6]; [11]
  selectivity ratio at 2 min: 1.08
[7]
  Clint ± SEM: 11.8 mL × g Protein^−1 × min^−1
  Stereoselectivity Vmax: 3.33 fold
  Stereoselectivity Km: 1.19 fold
  selectivity ratio at 2 min: 2.79
[8]
  Clint ± SEM: 29.5 mL × g Protein^−1 × min^−1
[8]; Stereoselectivity ClInt, given as for (S) or for 2
  selectivity ratio at 2 min: 1.02
[8]; [13]
  selectivity ratio at 2 min: 1.89
[8]; [14]
  selectivity ratio at 2 min: 2.04

## NCC(O)c1ccccc1 (stereo not shown) [Bisnorephedrine]
[9]; given as for (S)
  selectivity ratio at 2 min, 100 μM: 1.09
[10]
  selectivity ratio at 2 min, 100 μM: 1.1

## CNCC(O)c1ccccc1 (stereo not shown) [Halostachine-1, Halostachine]
[2]; given as for WT
  selectivity ratio at 2 min, 100 μM: 1.02
[3]
  Saturable net uptake: No saturable net uptake
[4]
  Saturable net uptake: No saturable net uptake
[5]
  Saturable net uptake: No saturable net uptake
[6]; OCT1
  Saturable net uptake: No saturable net uptake
[7]
  Saturable net uptake: No saturable net uptake
[8]
  Clint ± SEM: 25.7 mL × g Protein^−1 × min^−1
[8]; [12]
  selectivity ratio at 2 min: 1.89
[8]; Stereoselectivity Km, given as for (S) or for 2 (second-eluting)
  selectivity ratio at 2 min: 1.5
[8]; [14]
  selectivity ratio at 2 min: 1.26

## CNCC(O)c1ccccc1 (stereo not shown) [Halostachine-2, Halostachine]
[2]; given as for A270S
  selectivity ratio at 2 min, 100 μM: 1.05
[3]
  Saturable net uptake: No saturable net uptake
[4]
  Saturable net uptake: No saturable net uptake
[5]
  Saturable net uptake: No saturable net uptake
[6]; OCT1
  Saturable net uptake: No saturable net uptake
[7]
  Saturable net uptake: No saturable net uptake
[8]
  Clint ± SEM: 13.6 mL × g Protein^−1 × min^−1

## CNCC(O)c1ccccc1 (stereo not shown) [Halostachine]
[9]; given as for (R)
  selectivity ratio at 2 min, 100 μM: 1.32
[10]
  selectivity ratio at 2 min, 100 μM: 1.42

## CNCC(O)c1ccc(O)c(OC)c1 (stereo not shown) [Metanephrine]
[9]; given as for (R)
  selectivity ratio at 2 min, 100 μM: 2.26
[10]
  selectivity ratio at 2 min, 100 μM: 2.78

## COc1cc(C(O)CN)ccc1O (stereo not shown) [Normetanephrine]
[9]; given as for (R)
  selectivity ratio at 2 min, 100 μM: 1.7
[10]
  selectivity ratio at 2 min, 100 μM: 1.91
